PMC3223389 (Frontiers in Pharmacology, 2011)

Molecular target: T1, P2X2/3 receptors (Homo sapiens, UniProt P56373+Q9UBL9)
T1 sequence (Q9UBL9 1-471): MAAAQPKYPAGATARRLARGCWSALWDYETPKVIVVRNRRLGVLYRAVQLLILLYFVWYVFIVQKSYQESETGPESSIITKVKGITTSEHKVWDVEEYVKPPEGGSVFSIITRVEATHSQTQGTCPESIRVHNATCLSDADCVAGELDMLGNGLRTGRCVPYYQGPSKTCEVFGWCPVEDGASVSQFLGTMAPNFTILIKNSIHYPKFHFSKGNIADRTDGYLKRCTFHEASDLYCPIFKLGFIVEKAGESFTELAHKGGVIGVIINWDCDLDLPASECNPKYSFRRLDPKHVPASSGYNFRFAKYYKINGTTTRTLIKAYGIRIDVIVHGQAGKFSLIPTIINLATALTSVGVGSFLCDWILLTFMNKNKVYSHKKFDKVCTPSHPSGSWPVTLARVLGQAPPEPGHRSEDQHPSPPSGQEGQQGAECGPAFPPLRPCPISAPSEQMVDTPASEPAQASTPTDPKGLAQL
T1 sequence (P56373 1-397): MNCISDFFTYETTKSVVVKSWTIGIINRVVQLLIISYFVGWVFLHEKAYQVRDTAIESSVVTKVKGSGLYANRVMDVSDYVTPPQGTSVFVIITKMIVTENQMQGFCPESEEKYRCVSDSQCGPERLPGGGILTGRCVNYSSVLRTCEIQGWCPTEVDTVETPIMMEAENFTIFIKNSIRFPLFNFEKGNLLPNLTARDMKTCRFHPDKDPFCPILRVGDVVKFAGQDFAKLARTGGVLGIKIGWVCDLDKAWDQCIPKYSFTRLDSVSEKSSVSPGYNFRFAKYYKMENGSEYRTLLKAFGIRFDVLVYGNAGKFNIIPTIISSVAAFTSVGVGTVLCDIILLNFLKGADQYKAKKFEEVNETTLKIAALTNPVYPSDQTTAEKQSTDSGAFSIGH
Experiment: SyncroPatch 96 recording of P2X2/3 receptors in 1321N1 cells
Type: cell-based
Conditions: 10 μM, 1321N1 cell, three applications with intermittent wash steps

activation of P2X2/3 receptors: repeatedly activated
SMILES: Nc1ncnc2c1ncn2[C@@H]1O[C@H](COP(=O)(O)OP(=O)(O)OP(=O)(O)O)[C@@H](O)[C@H]1O [ATP]
